From patent US20250152623A1, “Compositions and kits for use in wound healing, tissue regeneration and/or bone regeneration” (priority 2022, published 2025)
Like-named read-outs stand apart in the source and are kept apart here.

Experiments:
[1] = test system: chorioallantoic membrane (CAM); type: in vivo
Experimental: (§1) To investigate the cytotoxicity of calcium peroxide, hyaluronic acid, and a combination thereof on cells, the substances were given to human primary fibroblasts, osteoblasts, and human umbilical vein endothelial cells (HUVEC) in vitro and compared to untreated cells and a dead control. For this purpose, cytotoxicity tests were performed according to ISO 10993-5 by measuring the cell viability quantitatively and […]. Additionally, biocompatibility tests were performed in the chorioallantoic membrane assay (CAM assay) in fertilized hen's eggs. All tests were repeated at least three times independently. In all tests 30 mg/mL hyaluronic acid and 0.256 mg/mL CaO2 were used. According to ISO 10993-5, cytotoxicity is defined by more than 30% reduction of the viable cell number by the substance.
Fertilized white Leghorn chicken eggs (LSL Rhein-Main GmbH, Dieburg, Germany) were incubated at 38° C. with constant humidity of 55 rH in an incubator (Type 3000 digital and fully automatic, Siepmann GmbH, Herdecke, Germany). For the first three days, eggs were placed horizontally on one side to ensure that the CAM would detach from the upwards pointing eggshell. On the embryonic development day (EDD) 3, eggs were prepared by removing 5-6 mL of the albumen in order to enlarge the space between eggshell and CAM. A small window of 3×2 cm was cut into the upwards pointing part of the eggshell. The window was covered with Parafilm® (Sigma-Aldrich, St. Louis, MO, USA) to prevent evaporation. On EDD-8, Gelaspon Strips (Bausch & Lomb Inc.; New York, USA) were cut in slices of 1×0.5×2 mm. 20 μl of each substance (512 mg/L CaO2, 10 mg/mL sodium hyaluronate, combination thereof) were added to the sponge. 20 μl of water was used as control. The further assessment of potential tissue adverse events was performed blinded. After 3 h, on EDD-10, and EDD-12, pictures were taken with a digital intravital fluorescence microscope (Olympus BXFM, Olympus Deutschland GmbH, Hamburg, Germany) at a 100-fold magnification using the cellSens Dimension software package.

[2] = test system: planktonic Porphyromonas gingivalis DSM 20709; experiment: Planktonic bacterial growth and metabolic activity of P. gingivalis; type: cell-based; conditions: for relative metabolic activity compared to the control: FIG. 5 lower right; for optical density at 600 nm (growth) compared to the control: FIG. 5 top right
Experimental: (§2) According to FIG. 5, different concentrations of calcium peroxide were applied to mature biofilms in combination with hyaluronic acid. Calcium peroxide was added to planktonic bacterial strains S. oralis and P. gingivalis in concentrations ranging from 0 mg/L (control) to 500 mg/L with hyaluronic acid being present in a concentration of 11.550 mg/L. Shown in each case are the optical density at 600 nm, a parameter for the growth of a bacterial culture, and the relative metabolic activity. […] The autoclaved calcium peroxide (CaO2) (Sigma Aldrich, St. Louis, MO, US), ZnO2 and/or MgO2 was dissolved in sterile filtered, deionized, and autoclaved water. By serial dilutions with water (for planktonic experiments) or BHI/VitK (for biofilm experiments) the solutions were adjusted to concentration of 3.9-500 mg/l CaO2 for bacterial experiments. All solutions were freshly prepared for each experiment. Streptococcus oralis ATCC 9811 was obtained from the American Type Culture Collection (ATCC) and Porphyromonas gingivalis DSM 20709 derived from the German Collection of Microorganisms and Cell Cultures (DSMZ). The strains were grown under anaerobic conditions (80% N2, 10% H2, 10% CO2) at 37° C. for 24 h in 50 mL screw cap tube (Sarstedt, Nümbrecht, Germany) with Brain Heart Infusion Medium (BHI; Oxoid, Wesel, Germany) containing 10 μg/mL vitamin K (Roth, Karlsruhe, Germany; BHI/VitK) to obtain 24-hour-old precultures for further processing. In order to determine the influence of CaO2 on planktonic S. oralis and P. gingivalis, the 24-hour-old precultures were pelleted by centrifugation at 4,000 g for 15 min at 4° C., the supernatant was discarded and the bacterial pellets were resuspended in fresh double concentrated BHI/VitK medium (2×BH/VitK). The optical density was measured at 600 nm (OD600; BioPhotometer, Eppendorf, Hamburg, Germany), adjusted to 0.2 and dilute 1:10 with 2×BHI/VitK to 0.02. The freshly prepared CaO2 solution was mixed equally with the bacterial cultures (OD600=0.02) to a final OD600=0.01 and following final concentrations for CaO2: As positive controls, bacterial cultures (OD600=0.02) were mixed 1:2 with sterile filtered, deionized and autoclaved water (growth controls). As negative controls, 2×BHI/VitK was mixed equally with sterile filtered, deionized and autoclaved water (medium control) and the CaO2 solution was mixed 1:2 with 2×BHI/VitK (CaO2 solution control). Finally, 150 μL of each suspension was transferred into each well of a 96-well plate and cultivated for 24 h at 37° C. rotating (180 rpm) under anaerobic conditions (Anaerobic Jar and AnaeroGen; Oxoid, Wesel, Germany). All experiments were carried out in three biological and two technical replicates. To evaluate the effect of CaO2 on the growth of planktonic S. oralis and P. gingivalis cultures, the 24-h-old bacterial cultures were mixed and the optical density (OD600) was measured with a plate reader (Tecan, Mennedorf, Switzerland). Metabolic activity was measured using the BacTiter-Glo™ Microbial Viability Assay (Promega, Mannheim, Germany). 50 μL BacTiter-Glo™ reagent and 50 μL of the well-mixed bacterial cultures were added to opaque 96-well plates. After 5 min of incubation at room temperature under light protection, the samples were mixed again and the amount of adenosine triphosphate (ATP) was determined by measuring the luminescence using the plate reader. All results were normalized to the medium or CaO2 solution controls.

[3] = test system: human primary osteoblasts; type: cell-based; conditions: 30 mg/mL hyaluronic acid, 0.256 mg/mL CaO2; FIG. 2
Experimental: as §1
Primary human osteoblasts were isolated according to the following protocol. Human bone specimens were obtained during hip or knee joint replacement surgeries. […]
Cells were seeded into a 24-well-plate and they were given time to adhere overnight. […] Fluorescence was measured on a Fluorescence Microplate Reader (Fluoroskan Ascent Microplate reader, ThermoFisher Scientific, Waltham, MA, USA). […]

[4] = test system: planktonic Streptococcus oralis ATCC 9811; experiment: Planktonic bacterial growth and metabolic activity of S. oralis; type: cell-based; conditions: for optical density at 600 nm (growth) compared to the control: 24 h anaerobic, FIG. 5 upper left
Experimental: as §2, with “As negative controls, 2×BHI/VitK was mixed equally with sterile filtered, deionized and autoclaved water (medium control) and the CaO2 solution was mixed 1:2 with 2×BHI/VitK (CaO2 solution control). Finally, 150 μL of each suspension was transferred into each well of a 96-well plate and cultivated for 24 h at 37° C. rotating (180 rpm) under anaerobic conditions (Anaerobic Jar and AnaeroGen; Oxoid, Wesel, Germany). All experiments were carried out in three biological and two technical replicates.” left out, “50 μL BacTiter-Glo™ reagent and 50 μL of the well-mixed bacterial cultures were added to opaque 96-well plates.” left out, “All results were normalized to the medium or CaO2 solution controls.” left out

[5] = test system: human primary fibroblasts obtained from human oral mucosa; type: cell-based; conditions: 0.256 mg/mL calcium peroxide as single substance; cytotoxicity = more than 30% reduction (ISO 10993-5); FIG. 1
Experimental: as §1
Fibroblasts were obtained from human oral mucosa. Tissue samples were cut into small pieces of approximately 2×2 mm with a sterile disposable scalpel. […]
Cells were seeded into a 24-well-plate and they were given time to adhere overnight. […] Fluorescence was measured on a Fluorescence Microplate Reader (Fluoroskan Ascent Microplate reader, ThermoFisher Scientific, Waltham, MA, USA). Results were given as relative fluorescence using a 538 nm excitation filter and a 600 nm emission filter, normalized to untreated control.

Molecule | adverse tissue reactions on the CAM ([1]; FIG. 4) | angiogenesis (area of the sponge covered by blood vessels) compared to untreated CAM tissue ([1]; FIG. 4A) | cytotoxic effect on the CAM ([1]; substance applied on sponge, FIGS. 4A and 4B) | relative metabolic activity compared to the control ([2]; calcium peroxide 125 mg/L) | optical density at 600 nm (growth) compared to the control ([2]; calcium peroxide 125 mg/L) | relative metabolic activity compared to the control ([2]; calcium peroxide 250 mg/L) | optical density at 600 nm (growth) compared to the control ([2]; calcium peroxide 250 mg/L) | relative metabolic activity compared to the control ([2]; calcium peroxide 500 mg/L) | optical density at 600 nm (growth) compared to the control ([2]; calcium peroxide 500 mg/L) | viability after treatment in comparison to untreated osteoblasts (=100% cell viability) [3] | growth inhibition of S. oralis ([4]; calcium peroxide 125 mg/L) | optical density at 600 nm (growth) compared to the control ([4]; calcium peroxide 250 mg/L) | optical density at 600 nm (growth) compared to the control ([4]; calcium peroxide 500 mg/L) | relative metabolic activity compared to the control ([4]; calcium peroxide up to 500 mg/L, FIG. 5 lower left) | reduction in cell viability [5] | adverse tissue reactions on the CAM ([1]; in vivo) | cytotoxic effect on the CAM ([1]; in vivo)
[Ca+2].[O-][O-] [calcium peroxide] | no adverse tissue reactions | not significantly different | none of the tested substances had a cytotoxic effect | significantly decreased | significantly decreased | significantly decreased | significantly decreased | significantly decreased | significantly decreased | hardly showed a reduction | only very slightly inhibited | decreased significantly | decreased significantly | unchanged | more than 30% |  | 
hyaluronic acid |  |  |  |  |  |  |  |  |  |  |  |  |  |  |  | no adverse tissue reactions | none of the tested substances had a cytotoxic effect
